Reference: paper PMC10244169, “Psychedelics promote plasticity by directly binding to BDNF receptor TrkB” (Nature Neuroscience, 2023)

Molecular target: T1, TrkB (WT) dimerization (Rattus norvegicus, UniProt Q63604)
T1 construct: expressed in transfected cells; host or cells: N2a
Assay: Split-luciferase PCA of TrkB dimerization in N2a cells
Type: cell-based
Conditions: for TrkB dimerization (PCA), group mean (vehicle = 100): WT
Description: Ketanserin, M100907 and TRKB.FC were added to the media 10 min before treatment. The PCA method was performed as previously described[11],[75],[76]. Split humanized Gaussia princeps luciferase (hGLuc) was cloned on the C-terminus of the reporter proteins TrkB (WT and Y433F) and lipid raft Fyn. If the reporter proteins that carry complementary halves of the luciferase interact, the enzyme can refold in its functional conformation and, upon addition of its substrate, produce luminescence proportionally to the amount of reporter proteins interacting at a given time. N2a cells were seeded in 96-well plates with opaque walls and transparent bottom (PerkinElmer, ViewPlate 96). Cells were transfected with Lipofectamine 2000 according to the manufacturer’s instructions 24 h post-plating with the PCA pair plasmids: phGLuc(1C)-TrkB(WT) or the mutant phGLuc(1C)-TrkB(Y433F) and phGLuc(2 C)-TrkB(WT) for the dimerization experiments; phGLuc(1C)-lipid raft Fyn and phGLuc(2C)-TrkB(WT) or phGLuc(2C)-TrkB(Y433F) for the lipid raft localization experiments. Forty-eight hours post transfection, cells were treated (40 min, 37 °C) in phenol red-free Dulbecco’s modified Eagle medium without serum. […] The PCA signal was detected with the substrate for the luciferase, native coelenterazine, which was injected into each well directly in the plate reader at a final concentration of […].

T1 sequence (Q63604 32-821): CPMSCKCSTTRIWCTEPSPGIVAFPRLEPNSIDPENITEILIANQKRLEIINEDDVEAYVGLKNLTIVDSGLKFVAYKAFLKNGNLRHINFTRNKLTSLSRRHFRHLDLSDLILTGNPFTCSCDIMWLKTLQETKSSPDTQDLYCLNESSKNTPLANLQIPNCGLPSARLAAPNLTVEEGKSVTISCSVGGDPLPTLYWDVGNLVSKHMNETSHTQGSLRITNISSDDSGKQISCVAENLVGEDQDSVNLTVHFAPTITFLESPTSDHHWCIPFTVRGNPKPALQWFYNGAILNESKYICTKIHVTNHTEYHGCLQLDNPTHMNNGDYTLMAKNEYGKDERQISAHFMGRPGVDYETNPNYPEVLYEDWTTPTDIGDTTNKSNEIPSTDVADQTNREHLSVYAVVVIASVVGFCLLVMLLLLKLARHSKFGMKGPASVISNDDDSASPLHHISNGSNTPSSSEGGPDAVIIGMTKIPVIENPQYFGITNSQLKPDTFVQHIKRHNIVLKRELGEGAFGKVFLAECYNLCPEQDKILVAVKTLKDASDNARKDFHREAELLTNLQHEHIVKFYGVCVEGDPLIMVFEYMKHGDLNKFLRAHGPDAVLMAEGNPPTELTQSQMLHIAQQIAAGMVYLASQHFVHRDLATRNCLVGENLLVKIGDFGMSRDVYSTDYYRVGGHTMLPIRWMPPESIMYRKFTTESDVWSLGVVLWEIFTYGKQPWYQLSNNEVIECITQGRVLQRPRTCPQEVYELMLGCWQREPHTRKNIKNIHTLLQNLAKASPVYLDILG
T1 sequence (Q63604 32-821): as above

**Q.** Which results are given for `CN(C)CCc1c[nH]c2cccc(O)c12` [PSI, psilocin]?
**A.** TrkB dimerization (WT TrkB, N2a cells, 1 nM to 1 µM): fast and long-lasting increase in dimerization; TrkB dimerization (PCA), group mean (vehicle = 100) (1nM): 146; TrkB dimerization (PCA), group mean (vehicle = 100) (10nM): 133.7; TrkB dimerization (PCA), group mean (vehicle = 100) (100nM): 150.6; TrkB dimerization (PCA), group mean (vehicle = 100) (1uM): 166.1
